Test results published in US8415469B2, “Compounds and methods for kinase modulation, and indications therefor” (Plexxikon Inc., priority 2005, dated 2013).

Key:
Format in all cases: biochemical
Fms = molecular target: T1, Fms (Homo sapiens, UniProt P07333); assay: AlphaScreen kinase assay, Fms; settings: read-out: IC50, activity toward kinase Fms
T1 construct: purchased Upstate Biotechnology

Zap70 = molecular target: T2, Zap70 (Homo sapiens, UniProt P43403); assay: AlphaScreen kinase assay, Zap70; settings: read-out: IC50, activity toward kinase Zap70
T2 construct: P1868.pFastBac1 ZAP70 D327-G606 HIS, WT; His7 (HHHHHHH) (C); made in house
T2 sequence (P43403 with tags, fused parts or gaps): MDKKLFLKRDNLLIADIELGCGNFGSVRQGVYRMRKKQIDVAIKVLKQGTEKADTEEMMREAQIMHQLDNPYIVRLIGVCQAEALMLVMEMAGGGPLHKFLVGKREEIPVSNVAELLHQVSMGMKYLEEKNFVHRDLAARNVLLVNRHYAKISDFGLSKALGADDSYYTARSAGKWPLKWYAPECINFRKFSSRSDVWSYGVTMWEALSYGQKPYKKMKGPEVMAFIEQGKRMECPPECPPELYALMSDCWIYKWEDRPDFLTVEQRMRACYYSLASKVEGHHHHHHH
Procedure, shortened: (§1)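 Eight concentrations per compound (1:3 serial dilution of 20 mM DMSO stock) were tested. Read-out: AlphaScreen signal from phospho-antibody acceptor and streptavidin donor beads bound to biotinylated peptide substrate, reduced on kinase inhibition.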

Jnk1 = molecular target: T3, Jnk1 (Homo sapiens, UniProt P45983); assay: AlphaScreen kinase assay, Jnk1; settings: read-out: IC50, activity toward kinase Jnk1
T3 construct: purchased Upstate Biotechnology
T3 sequence (P45983 whole entry): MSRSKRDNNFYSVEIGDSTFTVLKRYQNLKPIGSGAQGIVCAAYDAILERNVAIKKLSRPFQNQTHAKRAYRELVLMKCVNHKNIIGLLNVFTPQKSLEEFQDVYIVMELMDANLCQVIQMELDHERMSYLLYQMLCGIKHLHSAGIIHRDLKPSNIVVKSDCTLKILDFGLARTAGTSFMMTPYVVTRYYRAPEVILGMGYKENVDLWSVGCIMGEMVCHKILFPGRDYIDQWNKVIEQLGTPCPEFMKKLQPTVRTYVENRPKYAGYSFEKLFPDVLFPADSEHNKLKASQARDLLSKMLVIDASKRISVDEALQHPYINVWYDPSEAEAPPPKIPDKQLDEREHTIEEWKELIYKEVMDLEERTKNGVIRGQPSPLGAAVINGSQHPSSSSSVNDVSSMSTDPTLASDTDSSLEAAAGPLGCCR

TEC = molecular target: T4, TEC (Homo sapiens, UniProt P42680); assay: AlphaScreen kinase assay, TEC; settings: read-out: IC50, activity toward kinase TEC
T4 sequence (P42680 1-631): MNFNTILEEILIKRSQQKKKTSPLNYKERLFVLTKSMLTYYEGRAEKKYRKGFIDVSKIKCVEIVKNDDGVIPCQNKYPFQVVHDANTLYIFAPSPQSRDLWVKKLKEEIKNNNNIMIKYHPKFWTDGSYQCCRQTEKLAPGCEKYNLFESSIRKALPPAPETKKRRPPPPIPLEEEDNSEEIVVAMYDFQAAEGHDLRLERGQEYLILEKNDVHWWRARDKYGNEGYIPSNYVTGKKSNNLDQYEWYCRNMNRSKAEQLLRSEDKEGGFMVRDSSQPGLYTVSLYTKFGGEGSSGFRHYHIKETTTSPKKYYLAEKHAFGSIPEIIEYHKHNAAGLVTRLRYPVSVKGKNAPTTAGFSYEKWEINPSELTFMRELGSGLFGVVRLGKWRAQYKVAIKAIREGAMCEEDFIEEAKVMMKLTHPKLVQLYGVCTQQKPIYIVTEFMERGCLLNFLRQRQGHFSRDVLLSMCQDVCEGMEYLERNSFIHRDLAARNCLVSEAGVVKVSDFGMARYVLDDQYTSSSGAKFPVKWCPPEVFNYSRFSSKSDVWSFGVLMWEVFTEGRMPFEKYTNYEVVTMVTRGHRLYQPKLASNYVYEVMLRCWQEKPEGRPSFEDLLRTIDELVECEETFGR
From the text: AlphaScreen assay was used to screen additional kinases. The assay is similarly dependent on the phosphorylation of a peptide substrate. In this assay, an antibody that recognizes phosphorylated substrate is bound to an acceptor bead. The peptide substrate is attached to biotin, which binds to a donor head that contains streptavidin. Thus phosphorylated substrate is bound by antibody and streptavidin, bringing the donor and acceptor heads into close proximity when kinase is not inhibited. The donor produces singlet oxygen which results in emission from the acceptor when they are in close proximity. Conversely, when kinase is inhibited, the donor and acceptor beads are not associated and the emission from the acceptor is reduced.
AlphaScreen assays were done using compounds dissolved in DMSO to a concentration of 20 mM. The compounds were diluted accordingly to the desired final concentrations in each sample well, using 1:3 serial dilution for a total of 8 concentration points.

Jnk2 = molecular target: T5, Jnk2 (Homo sapiens, UniProt P45984); assay: AlphaScreen kinase assay, Jnk2; settings: read-out: IC50, activity toward kinase Jnk2
T5 construct: purchased Roche Protein Expression Group (Indianapolis, IN)
T5 sequence (P45984 whole entry): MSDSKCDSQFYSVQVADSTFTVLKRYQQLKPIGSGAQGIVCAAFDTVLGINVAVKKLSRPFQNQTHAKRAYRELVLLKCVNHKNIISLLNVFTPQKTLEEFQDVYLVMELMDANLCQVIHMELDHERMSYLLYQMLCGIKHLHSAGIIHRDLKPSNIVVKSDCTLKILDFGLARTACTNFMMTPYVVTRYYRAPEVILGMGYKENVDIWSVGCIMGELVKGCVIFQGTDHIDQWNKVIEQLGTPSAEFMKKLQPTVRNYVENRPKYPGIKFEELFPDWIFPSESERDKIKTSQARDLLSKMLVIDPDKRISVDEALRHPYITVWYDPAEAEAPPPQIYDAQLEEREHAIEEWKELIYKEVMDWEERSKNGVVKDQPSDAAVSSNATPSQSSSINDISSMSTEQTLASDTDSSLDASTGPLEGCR
Procedure, shortened: as §1

FGFR1 = molecular target: T6, FGFR1 (Homo sapiens, UniProt P11362, C488A/C584S); assay: AlphaScreen kinase assay, FGFR1; settings: read-out: IC50, activity toward kinase FGFR
T6 construct: P1351.pET N6 BI-PTP FGFR A458-E765-X C488A, C584S; made in house; host or cells: E. coli (PTP1B co-expressed)

Btk = molecular target: T7, Btk (Homo sapiens, UniProt Q06187); assay: Z'-Lyte FRET kinase assay (Invitrogen), Btk; settings: read-out: IC50, activity toward kinase Btk
T7 construct: purchased Invitrogen (assay run by Invitrogen)

c-Raf-1 = molecular target: T8, c-Raf-1 (Homo sapiens, UniProt P04049); assay: AlphaScreen kinase assay, c-Raf-1; settings: read-out: IC50, activity toward kinase c-Raf-1
T8 construct: purchased Upstate Biotechnology
T8 sequence (P04049 whole entry): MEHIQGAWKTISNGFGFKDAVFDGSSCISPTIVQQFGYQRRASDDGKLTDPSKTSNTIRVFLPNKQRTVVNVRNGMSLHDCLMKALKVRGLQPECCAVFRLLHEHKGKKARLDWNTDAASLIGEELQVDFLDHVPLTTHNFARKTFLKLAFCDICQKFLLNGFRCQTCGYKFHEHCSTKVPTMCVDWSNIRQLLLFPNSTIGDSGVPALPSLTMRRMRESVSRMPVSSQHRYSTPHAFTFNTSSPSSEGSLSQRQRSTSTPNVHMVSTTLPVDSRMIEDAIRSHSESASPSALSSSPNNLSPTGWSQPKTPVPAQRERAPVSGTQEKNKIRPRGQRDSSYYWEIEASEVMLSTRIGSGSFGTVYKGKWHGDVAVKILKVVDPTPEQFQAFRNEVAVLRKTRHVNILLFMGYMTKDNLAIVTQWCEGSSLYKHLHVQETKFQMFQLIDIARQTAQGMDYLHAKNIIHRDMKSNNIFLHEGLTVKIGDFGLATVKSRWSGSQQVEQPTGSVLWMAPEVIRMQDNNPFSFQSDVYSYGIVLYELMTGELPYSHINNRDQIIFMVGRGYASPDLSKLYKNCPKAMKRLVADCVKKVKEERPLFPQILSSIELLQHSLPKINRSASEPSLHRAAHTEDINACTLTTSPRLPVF

B-Raf V600E = molecular target: T9, B-Raf V600E (Homo sapiens, UniProt P15056, V600E); assay: AlphaScreen kinase assay, B-Raf V600E; settings: read-out: IC50, activity toward kinase B-Raf V600E
T9 construct: P4254. pFastBacBD-CDC37 BRAF D437-K722-X, V600E; His6 with pFastBac HT leader (TEV site) (N); made in house; host or cells: Sf9 (baculovirus; chaperone CDC37 co-expressed)
T9 sequence (P15056 with tags, fused parts or gaps V600E): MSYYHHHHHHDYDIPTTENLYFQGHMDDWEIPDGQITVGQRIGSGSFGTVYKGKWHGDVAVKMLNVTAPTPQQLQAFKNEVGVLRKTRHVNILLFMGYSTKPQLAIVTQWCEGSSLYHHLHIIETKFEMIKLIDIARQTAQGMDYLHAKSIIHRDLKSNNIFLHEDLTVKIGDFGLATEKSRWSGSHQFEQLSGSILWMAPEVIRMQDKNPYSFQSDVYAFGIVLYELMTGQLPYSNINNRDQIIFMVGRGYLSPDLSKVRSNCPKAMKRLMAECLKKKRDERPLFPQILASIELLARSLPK

Jnk3 = molecular target: T10, Jnk3 (Homo sapiens, UniProt P53779); assay: AlphaScreen kinase assay, Jnk3; settings: read-out: IC50, activity toward kinase Jnk3
T10 construct: purchased Upstate Biotechnology
T10 sequence (P53779 whole entry): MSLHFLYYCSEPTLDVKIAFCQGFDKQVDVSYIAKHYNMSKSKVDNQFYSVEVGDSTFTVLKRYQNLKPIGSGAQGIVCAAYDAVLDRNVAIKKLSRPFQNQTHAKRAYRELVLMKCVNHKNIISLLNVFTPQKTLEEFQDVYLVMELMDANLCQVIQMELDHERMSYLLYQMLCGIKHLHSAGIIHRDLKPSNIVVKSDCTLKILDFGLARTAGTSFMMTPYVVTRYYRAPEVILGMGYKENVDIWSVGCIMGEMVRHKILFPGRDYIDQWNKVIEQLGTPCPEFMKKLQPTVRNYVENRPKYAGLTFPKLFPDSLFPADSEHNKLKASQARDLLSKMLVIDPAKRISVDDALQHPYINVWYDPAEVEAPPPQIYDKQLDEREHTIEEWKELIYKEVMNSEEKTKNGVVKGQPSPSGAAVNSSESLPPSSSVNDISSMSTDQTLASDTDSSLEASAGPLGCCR

B-Raf = molecular target: T11, B-Raf (Homo sapiens, UniProt P15056); assay: AlphaScreen kinase assay, B-Raf; settings: read-out: IC50, activity toward kinase B-Raf
T11 construct: purchased Upstate Biotechnology
T11 sequence (P15056 whole entry): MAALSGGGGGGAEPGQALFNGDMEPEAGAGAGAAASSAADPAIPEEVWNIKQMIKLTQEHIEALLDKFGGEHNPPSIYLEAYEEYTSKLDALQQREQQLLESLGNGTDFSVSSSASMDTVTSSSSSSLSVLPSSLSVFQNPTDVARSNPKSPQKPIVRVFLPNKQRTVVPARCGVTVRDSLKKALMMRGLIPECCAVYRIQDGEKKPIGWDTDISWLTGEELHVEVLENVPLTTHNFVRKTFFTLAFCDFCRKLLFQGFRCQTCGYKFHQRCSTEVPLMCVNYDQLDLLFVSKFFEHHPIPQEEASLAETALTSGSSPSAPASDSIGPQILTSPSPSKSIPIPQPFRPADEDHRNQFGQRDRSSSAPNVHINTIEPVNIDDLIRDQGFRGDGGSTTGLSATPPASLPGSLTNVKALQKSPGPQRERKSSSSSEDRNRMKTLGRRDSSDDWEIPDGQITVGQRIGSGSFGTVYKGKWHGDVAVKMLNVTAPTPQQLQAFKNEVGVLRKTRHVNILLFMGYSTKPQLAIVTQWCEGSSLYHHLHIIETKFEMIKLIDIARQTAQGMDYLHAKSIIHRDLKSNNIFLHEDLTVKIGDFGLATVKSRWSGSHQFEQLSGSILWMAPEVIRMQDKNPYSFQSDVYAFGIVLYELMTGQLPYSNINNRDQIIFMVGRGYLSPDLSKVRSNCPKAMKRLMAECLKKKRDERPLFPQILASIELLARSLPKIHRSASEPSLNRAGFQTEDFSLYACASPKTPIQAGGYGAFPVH

Ret = molecular target: T12, Ret (Homo sapiens, UniProt P07949); assay: AlphaScreen kinase assay, Ret; settings: read-out: IC50, activity toward kinase Ret
T12 construct: P1378.pET-SF BI-PTP RET H661-R1012 HIS; made in house
T12 sequence (P07949 with tags, fused parts or gaps): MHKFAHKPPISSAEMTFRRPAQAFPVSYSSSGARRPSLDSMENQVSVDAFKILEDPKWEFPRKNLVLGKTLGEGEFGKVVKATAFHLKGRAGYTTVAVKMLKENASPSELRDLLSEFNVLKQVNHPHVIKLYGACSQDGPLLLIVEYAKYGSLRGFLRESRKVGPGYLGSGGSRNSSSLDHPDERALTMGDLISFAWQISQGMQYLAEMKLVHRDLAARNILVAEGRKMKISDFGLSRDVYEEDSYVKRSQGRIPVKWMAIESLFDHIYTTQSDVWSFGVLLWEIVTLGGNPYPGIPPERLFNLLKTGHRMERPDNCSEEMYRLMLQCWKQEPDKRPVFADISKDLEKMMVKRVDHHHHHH

Met = molecular target: T13, Met (Homo sapiens, UniProt P08581); assay: AlphaScreen kinase assay, Met; settings: read-out: IC50, activity toward kinase Met
T13 construct: P1818.pETN6 BI-PTP MET G1056-G1364-X WT; His6 (N); made in house; host or cells: E. coli (PTP1B co-expressed)
Procedure, shortened: as §1

Pyk2 = molecular target: T14, Pyk2 (Homo sapiens, UniProt Q14289); assay: AlphaScreen kinase assay, Pyk2; settings: read-out: IC50, activity toward kinase Pyk2
T14 construct: purchased Upstate Biotechnology
T14 sequence (Q14289 whole entry): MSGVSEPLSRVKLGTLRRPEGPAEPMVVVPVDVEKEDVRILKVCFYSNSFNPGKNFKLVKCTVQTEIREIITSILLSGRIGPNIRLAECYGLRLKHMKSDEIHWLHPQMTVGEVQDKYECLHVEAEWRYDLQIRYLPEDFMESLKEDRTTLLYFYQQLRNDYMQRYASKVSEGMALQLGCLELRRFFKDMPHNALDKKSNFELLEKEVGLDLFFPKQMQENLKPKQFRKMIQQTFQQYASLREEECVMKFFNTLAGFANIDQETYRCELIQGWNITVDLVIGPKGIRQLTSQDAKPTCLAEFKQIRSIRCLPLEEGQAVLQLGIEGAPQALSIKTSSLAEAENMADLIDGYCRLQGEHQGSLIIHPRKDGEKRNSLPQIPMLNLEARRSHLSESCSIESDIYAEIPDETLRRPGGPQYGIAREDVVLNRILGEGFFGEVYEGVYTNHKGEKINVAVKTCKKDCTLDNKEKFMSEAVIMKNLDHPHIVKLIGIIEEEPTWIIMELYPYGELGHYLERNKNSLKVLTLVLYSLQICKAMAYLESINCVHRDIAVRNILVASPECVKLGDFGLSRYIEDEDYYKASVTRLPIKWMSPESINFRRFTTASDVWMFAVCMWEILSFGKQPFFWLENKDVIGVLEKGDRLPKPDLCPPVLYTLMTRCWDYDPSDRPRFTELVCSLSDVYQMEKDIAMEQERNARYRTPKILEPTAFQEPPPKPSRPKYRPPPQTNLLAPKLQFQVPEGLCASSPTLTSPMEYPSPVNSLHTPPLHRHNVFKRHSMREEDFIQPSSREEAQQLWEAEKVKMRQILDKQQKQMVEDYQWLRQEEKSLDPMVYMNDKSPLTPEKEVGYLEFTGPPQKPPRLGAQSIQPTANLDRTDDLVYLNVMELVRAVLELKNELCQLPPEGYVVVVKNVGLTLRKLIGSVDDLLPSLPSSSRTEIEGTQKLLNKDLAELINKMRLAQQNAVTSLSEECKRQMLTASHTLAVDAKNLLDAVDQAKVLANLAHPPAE

Src = molecular target: T15, Src (Homo sapiens, UniProt P12931); assay: AlphaScreen kinase assay, Src; settings: read-out: IC50, activity toward kinase Src
T15 construct: P1144. pET-N6 BI-PTP SRC V86-L536-X; made in house

Kit = molecular target: T16, Kit (Homo sapiens, UniProt P10721); assay: AlphaScreen kinase assay, Kit; settings: read-out: IC50, activity toward kinase Kit
T16 construct: P1332.N6 BI PTP KIT M552-K948-X COD; His6 (N); made in house; host or cells: E. coli (PTP1B co-expressed)

Fak = molecular target: T17, Fak (Homo sapiens, UniProt Q05397); assay: AlphaScreen kinase assay, Fak; settings: read-out: IC50, activity toward kinase Fak
T17 construct: P1358.pFastBacHtb FAK S411-Q686-X; His6 with pFastBacHTb leader (TEV site) (N); made in house; host or cells: Sf9 (baculovirus)

T1 sequence (P07333 20-972): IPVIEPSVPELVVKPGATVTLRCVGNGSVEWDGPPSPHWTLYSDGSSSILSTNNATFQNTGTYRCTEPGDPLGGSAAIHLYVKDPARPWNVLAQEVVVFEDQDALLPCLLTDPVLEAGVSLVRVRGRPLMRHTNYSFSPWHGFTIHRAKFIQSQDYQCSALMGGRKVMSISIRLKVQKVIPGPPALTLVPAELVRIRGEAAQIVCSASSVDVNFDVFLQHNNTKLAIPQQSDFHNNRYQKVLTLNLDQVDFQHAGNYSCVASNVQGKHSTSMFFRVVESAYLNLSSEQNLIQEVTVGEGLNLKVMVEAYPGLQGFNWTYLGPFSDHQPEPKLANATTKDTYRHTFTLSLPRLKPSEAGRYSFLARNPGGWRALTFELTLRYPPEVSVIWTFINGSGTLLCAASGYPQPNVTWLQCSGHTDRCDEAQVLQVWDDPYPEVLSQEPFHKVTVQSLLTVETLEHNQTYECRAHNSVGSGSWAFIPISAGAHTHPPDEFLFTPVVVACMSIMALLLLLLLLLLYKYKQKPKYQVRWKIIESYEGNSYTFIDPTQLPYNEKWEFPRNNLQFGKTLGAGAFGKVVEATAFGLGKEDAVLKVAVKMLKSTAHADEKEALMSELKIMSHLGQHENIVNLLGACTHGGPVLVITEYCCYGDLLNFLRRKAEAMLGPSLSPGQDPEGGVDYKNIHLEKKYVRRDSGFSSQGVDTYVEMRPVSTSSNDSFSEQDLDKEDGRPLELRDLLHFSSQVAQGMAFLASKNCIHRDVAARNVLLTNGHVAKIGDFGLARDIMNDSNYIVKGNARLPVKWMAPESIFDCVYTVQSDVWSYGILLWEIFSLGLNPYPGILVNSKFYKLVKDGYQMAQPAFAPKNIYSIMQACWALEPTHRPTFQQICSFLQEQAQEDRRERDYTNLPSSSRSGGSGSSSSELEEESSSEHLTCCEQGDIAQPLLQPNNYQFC

Structure (SMILES)	IC50 (Fms)	IC50 (Zap70)	IC50 (Jnk1)	IC50 (TEC)	IC50 (Jnk2)	IC50 (FGFR1)	IC50 (Btk)	IC50 (c-Raf-1)	IC50 (B-Raf V600E)	IC50 (Jnk3)	IC50 (B-Raf)	IC50 (Ret)	IC50 (Met)	IC50 (Pyk2)	IC50 (Src)	IC50 (Kit)	IC50 (Fak)
CS(=O)(=O)Nc1ccc(F)c(C(=O)c2c[nH]c3ncc(-c4cccc(S(C)(=O)=O)c4)cc23)c1 [Compound P-0297, N-{4-Fluoro-3-[5-(3-methanesulfonyl-phenyl)-1H-pyrrolo[2,3-b]pyridine-3-carbonyl]-phenyl}-methanesulfonamide]	≤ 10 µM	–	≤ 10 µM	≤ 10 µM	≤ 10 µM	≤ 10 µM	≤ 10 µM	≤ 10 µM	≤ 10 µM	–	≤ 10 µM	≤ 10 µM	–	–	–	–	–
CS(=O)(=O)Nc1cccc(-c2cnc3[nH]cc(C(=O)c4cc(NS(C)(=O)=O)ccc4F)c3c2)c1 [Compound P-0156, N-{4-Fluoro-3-[5-(3-methanesulfonylamino-phenyl)-1H-pyrrolo[2,3-b]pyridine-3-carbonyl]-phenyl}-methanesulfonamide]	–	–	≤ 10 µM	≤ 10 µM	≤ 10 µM	≤ 10 µM	≤ 10 µM	≤ 10 µM	≤ 10 µM	–	–	≤ 10 µM	≤ 10 µM	–	–	–	–
COC(=O)Nc1ccc(F)c(Cc2c[nH]c3ncc(-c4cccnc4)cc23)c1F [Compound P-0257, [2,4-Difluoro-3-(5-pyridin-3-yl-1H-pyrrolo[2,3-b]pyridin-3-ylmethyl)-phenyl]-carbamic acid methyl ester]	≤ 10 µM	–	≤ 10 µM	≤ 10 µM	–	≤ 10 µM	≤ 10 µM	≤ 10 µM	≤ 10 µM	≤ 10 µM	≤ 10 µM	≤ 10 µM	–	≤ 10 µM	–	≤ 10 µM	≤ 10 µM
O=C(NCc1ccc(CCc2c[nH]c3ncccc23)cc1)Nc1ccccc1 [Compound P-0429]	–	–	–	≤ 10 µM	–	–	≤ 10 µM	–	–	–	–	–	–	–	–	–	–

Results, then the compound that gave them:

IC50 (Fms)	IC50 (Zap70)	IC50 (Jnk1)	IC50 (TEC)	IC50 (Jnk2)	IC50 (FGFR1)	IC50 (Btk)	IC50 (c-Raf-1)	IC50 (B-Raf V600E)	IC50 (Jnk3)	IC50 (B-Raf)	IC50 (Ret)	IC50 (Met)	IC50 (Pyk2)	IC50 (Src)	IC50 (Kit)	IC50 (Fak)	Structure (SMILES)
≤ 10 µM	≤ 10 µM	≤ 10 µM	≤ 10 µM	≤ 10 µM	≤ 10 µM	≤ 10 µM	≤ 10 µM	≤ 10 µM	≤ 10 µM	≤ 10 µM	≤ 10 µM	≤ 10 µM	–	–	–	–	CS(=O)(=O)Nc1ccc(F)c(C(=O)c2c[nH]c3ncc(-c4cccc(C(N)=O)c4)cc23)c1 [Compound P-0228, 3-[3-(2-Fluoro-5-methanesulfonylamino-benzoyl)-1H-pyrrolo[2,3-b]pyridin-5-yl]-benzamide]
–	–	≤ 10 µM	≤ 10 µM	–	≤ 10 µM	≤ 10 µM	≤ 10 µM	≤ 10 µM	–	≤ 10 µM	–	–	≤ 10 µM	≤ 10 µM	–	–	CCCS(=O)(=O)Nc1ccc(F)c(C(=O)c2c[nH]c3ncc(C(C)C)cc23)c1F [Compound P-0997]
–	–	≤ 10 µM	≤ 10 µM	–	≤ 10 µM	≤ 10 µM	≤ 10 µM	≤ 10 µM	≤ 10 µM	≤ 10 µM	–	–	≤ 10 µM	–	–	–	C=C(C)c1cnc2[nH]cc(C(=O)c3c(F)ccc(NS(=O)(=O)CCC)c3F)c2c1 [Compound P-0991, Propane-1-sulfonic acid [2,4-difluoro-3-(5-isopropenyl-1H-pyrrolo[2,3-b]pyridine-3-carbonyl)-phenyl]-amide]
–	–	≤ 10 µM	≤ 10 µM	–	≤ 10 µM	≤ 10 µM	≤ 10 µM	≤ 10 µM	–	≤ 10 µM	–	–	≤ 10 µM	–	–	–	CCCS(=O)(=O)Nc1cccc(C(=O)c2c[nH]c3ncc(-c4ccccc4)cc23)c1F [Compound P-0897, Propane-1-sulfonic acid [2-fluoro-3-(5-phenyl-1H-pyrrolo[2,3-b]pyridine-3-carbonyl)-phenyl]-amide]
